Source: PubChem BioAssay AID1963961 (Molecular Pharmacology Branch, DTP, NCI, 2024)

Test system: K98450-129-R-PDC multicell spheroids, viability
Test: Anticancer human tumor K98450-129-R-PDC patient-derived colon adenocarcinoma cell line growth inhibition [PI3K]
Settings: for IC50: curve of first compound; for viability, T/C: stronger effect = lower value; active = viability on the fitted dose curve at most 10% of control; inactive = the rest
How it was run: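 Multi-cell spheroids combine tumor cells with HUVEC and human MSCs, treated with targeted agents alone or with inavolisib, alpelisib, duvelisib or copanlisib. Concentrations fall in half-log steps from at or near clinical Cmax, or from 10 microM where Cmax is unknown; viability read-out.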
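Note: spheroids exposed to agents for seven days before read-out.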

CCCS(=O)(=O)Nc1ccc(F)c(C(=O)c2c[nH]c3ncc(-c4ccc(Cl)cc4)cc23)c1F + Cc1nc(NC(=O)N2CCCC2C(N)=O)sc1-c1ccnc(C(C)(C)C(F)(F)F)c1
5.33 µM: IC50 (second compound 3.16 µM)
6 µM: IC50 (second compound 0.1 µM)
active: viability, T/C (second compound 0.0316 µM, first compound 10 µM) 6.29% | viability, T/C (second compound 0.1 µM, first compound 10 µM) 5.28% | viability, T/C (second compound 0.316 µM, first compound 10 µM) 5.66% | viability, T/C (second compound 1 µM, first compound 10 µM) 6.99% | viability, T/C (second compound 3.16 µM, first compound 10 µM) 6.1% | viability, T/C (second compound 10 µM, first compound 10 µM) 7.67%
4.79 µM: IC50 (second compound 10 µM)
6.04 µM: IC50 (second compound 0.0316 µM)
inactive: viability, T/C (second compound 0.0316 µM, first compound 0.0316 µM) 106% | viability, T/C (second compound 0.0316 µM, first compound 0.1 µM) 98.7% | viability, T/C (second compound 0.0316 µM, first compound 0.316 µM) 101% | viability, T/C (second compound 0.0316 µM, first compound 1 µM) 101% | viability, T/C (second compound 0.0316 µM, first compound 3.16 µM) 124% | viability, T/C (second compound 0.1 µM, first compound 0.0316 µM) 108% | viability, T/C (second compound 0.1 µM, first compound 0.1 µM) 96.9% | viability, T/C (second compound 0.1 µM, first compound 0.316 µM) 105% | viability, T/C (second compound 0.1 µM, first compound 1 µM) 103% | viability, T/C (second compound 0.1 µM, first compound 3.16 µM) 118% | viability, T/C (second compound 0.316 µM, first compound 0.0316 µM) 95.8% | viability, T/C (second compound 0.316 µM, first compound 0.1 µM) 95.8% | viability, T/C (second compound 0.316 µM, first compound 0.316 µM) 94.1% | viability, T/C (second compound 0.316 µM, first compound 1 µM) 92.8% | viability, T/C (second compound 0.316 µM, first compound 3.16 µM) 120% | viability, T/C (second compound 1 µM, first compound 0.0316 µM) 89.2% | viability, T/C (second compound 1 µM, first compound 0.1 µM) 90.9% | viability, T/C (second compound 1 µM, first compound 0.316 µM) 94.3% | viability, T/C (second compound 1 µM, first compound 1 µM) 92.9% | viability, T/C (second compound 1 µM, first compound 3.16 µM) 107% | viability, T/C (second compound 3.16 µM, first compound 0.0316 µM) 84% | viability, T/C (second compound 3.16 µM, first compound 0.1 µM) 85.8% | viability, T/C (second compound 3.16 µM, first compound 0.316 µM) 84.5% | viability, T/C (second compound 3.16 µM, first compound 1 µM) 89% | viability, T/C (second compound 3.16 µM, first compound 3.16 µM) 88.8% | viability, T/C (second compound 10 µM, first compound 0.0316 µM) 70.5% | viability, T/C (second compound 10 µM, first compound 0.1 µM) 72.8% | viability, T/C (second compound 10 µM, first compound 0.316 µM) 78% | viability, T/C (second compound 10 µM, first compound 1 µM) 71.1% | viability, T/C (second compound 10 µM, first compound 3.16 µM) 76.9%
5.81 µM: IC50 (second compound 0.316 µM)
5.69 µM: IC50 (second compound 1 µM)
